Results taken from patent publication US11969428B2, “Methods and pharmaceutical compositions for treating lymphoid malignancy” (priority 2011, dated 2024).

Key:
Assay in all cases: Ambit KinomeScan screening
Format in all cases: binding
Conditions in all cases: CAL-130 10 μM
TXK = target: T1, TXK (Homo sapiens, UniProt P42681)
T1 construct: tag, kind not specified; purchased Ambit (KinomeScan screening service)
Outline: (§1)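 CAL-130 was tested at 10 μM for its ability to block tagged kinases from binding an immobilized bait ligand across a 353-kinase panel. Values are expressed as percent of control binding, with lower numbers meaning stronger interaction and values above 35% classed as no hit.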

DRAK2 = target: T2, DRAK2 (Homo sapiens, UniProt O94768)
T2 construct: unspecified tag ("tagged kinases"); purchased Ambit (KinomeScan screening service)
Outline: as §1

HIPK4 = target: T3, HIPK4 (Homo sapiens, UniProt Q8NE63)
T3 construct: Ambit (KinomeScan screening)
Outline: as §1

NLK = target: T4, NLK (Homo sapiens, UniProt Q9UBE8)
T4 construct: purchased Ambit (KinomeScan screening service)
Outline: as §1

PIM3 = target: T5, PIM3 (Homo sapiens, UniProt Q86V86)
T5 construct: unspecified tag; purchased Ambit (KinomeScan screening panel)
Outline: as §1

PRKX = target: T6, PRKX (Homo sapiens, UniProt P51817)
T6 construct: tag (kind not specified); purchased Ambit (KinomeScan screening service)
Outline: as §1

ULK1 = target: T7, ULK1 (Homo sapiens, UniProt O75385)
T7 construct: tag, kind not specified; purchased Ambit (KinomeScan screening service)
Outline: as §1

KIT = target: T8, KIT (Homo sapiens, UniProt P10721)
T8 construct: purchased Ambit (KinomeScan screening)
Outline: as §1

GRK1 = target: T9, GRK1 (Homo sapiens, UniProt Q15835)
T9 construct: unspecified tag ('tagged kinases'); purchased Ambit (KinomeScan screening service)
Outline: as §1

ABL1(F317L) = target: T10, ABL1(F317L) (Homo sapiens, UniProt P00519, F317L)
T10 construct: unspecified tag ("tagged kinases"); purchased Ambit (KinomeScan screening)
Outline: as §1

HIPK3 = target: T11, HIPK3 (Homo sapiens, UniProt Q9H422)
T11 construct: Ambit (KinomeScan screening)
Outline: as §1

IKK-α = target: T12, IKK-α (Homo sapiens, UniProt O15111)
T12 construct: Ambit (KinomeScan screening)
Outline: as §1

TAO1 = target: T13, TAO1 (Homo sapiens, UniProt Q9UL54)
T13 construct: tag (kind not specified); purchased Ambit (KinomeScan screening service)
Outline: as §1

FRK = target: T14, FRK (Homo sapiens, UniProt P42685)
T14 construct: unspecified tag ('tagged kinases'); purchased Ambit (KinomeScan screening service)
Outline: as §1

BMPR1A = target: T15, BMPR1A (Homo sapiens, UniProt P36894)
T15 construct: purchased Ambit (KinomeScan screening service)
Outline: as §1

LATS2 = target: T16, LATS2 (Homo sapiens, UniProt Q9NRM7)
T16 construct: unspecified tag ('tagged kinases'); purchased Ambit (KinomeScan screening service)
Outline: as §1

MAST1 = target: T17, MAST1 (Homo sapiens, UniProt Q9Y2H9)
T17 construct: purchased Ambit (KinomeScan screening)
Outline: as §1

ADCK4 = target: T18, ADCK4 (Homo sapiens, UniProt Q96D53)
T18 construct: purchased Ambit (KinomeScan screening)
Outline: as §1

ABL1(F317I) = target: T19, ABL1(F317I) (Homo sapiens, UniProt P00519, F317I)
T19 construct: unspecified tag ("tagged kinases"); purchased Ambit (KinomeScan screening)
Outline: as §1

PCTK2 = target: T20, PCTK2 (Homo sapiens, UniProt Q00537)
T20 construct: unspecified tag ('tagged kinases'); purchased Ambit (KinomeScan screening)
Outline: as §1

PRKCQ = target: T21, PRKCQ (Homo sapiens, UniProt Q04759)
T21 construct: purchased Ambit (KinomeScan screening service)
Outline: as §1

CDK8 = target: T22, CDK8 (Homo sapiens, UniProt P49336)
T22 construct: purchased Ambit (KinomeScan screening service)
Outline: as §1

GCN2(S808G) = target: T23, GCN2(S808G) (Homo sapiens, UniProt Q9P2K8, S808G)
T23 construct: unspecified tag ('tagged kinases'); purchased Ambit (KinomeScan screening service)
Outline: as §1

AMPK-α2 = target: T24, AMPK-α2 (Homo sapiens, UniProt P54646)
T24 construct: purchased Ambit (KinomeScan screening)
Outline: as §1

EPHA6 = target: T25, EPHA6 (Homo sapiens, UniProt Q9UF33)
T25 construct: purchased Ambit (KinomeScan screening service)
Outline: as §1

TRKC = target: T26, TRKC (Homo sapiens, UniProt Q16288)
T26 construct: tag, kind not specified; purchased Ambit (KinomeScan screening service)
Outline: as §1

SRMS = target: T27, SRMS (Homo sapiens, UniProt Q9H3Y6)
T27 construct: tag, kind not specified; purchased Ambit (KinomeScan screening service)
Outline: as §1

CLK2 = target: T28, CLK2 (Homo sapiens, UniProt P49760)
T28 construct: purchased Ambit (KinomeScan screening service)
Outline: as §1

ABL2 = target: T29, ABL2 (Homo sapiens, UniProt P42684)
T29 construct: unspecified tag ("tagged kinases"); purchased Ambit (KinomeScan screening)
Outline: as §1

EPHA1 = target: T30, EPHA1 (Homo sapiens, UniProt P21709)
T30 construct: purchased Ambit (KinomeScan screening service)
Outline: as §1

INSRR = target: T31, INSRR (Homo sapiens, UniProt P14616)
T31 construct: Ambit (KinomeScan screening)
Outline: as §1

AKT2 = target: T32, AKT2 (Homo sapiens, UniProt P31751)
T32 construct: purchased Ambit (KinomeScan screening)
Outline: as §1

CAMK1 = target: T33, CAMK1 (Homo sapiens, UniProt Q14012)
T33 construct: unspecified tag ("tagged kinases"); purchased Ambit (KinomeScan screening)
Outline: as §1

CAMK4 = target: T34, CAMK4 (Homo sapiens, UniProt Q16566)
T34 construct: purchased Ambit (KinomeScan screening)
Outline: as §1

ULK2 = target: T35, ULK2 (Homo sapiens, UniProt Q8IYT8)
T35 construct: tag, kind not specified; purchased Ambit (KinomeScan screening service)
Outline: as §1

ALK = target: T36, ALK (Homo sapiens, UniProt Q9UM73)
T36 construct: purchased Ambit (KinomeScan screening)
Outline: as §1

FGFR4 = target: T37, FGFR4 (Homo sapiens, UniProt P22455)
T37 construct: unspecified tag; purchased Ambit (KinomeScan screening service)
Outline: as §1

Measured: Percent of Control Binding

T13 sequence (Q9UL54 whole entry): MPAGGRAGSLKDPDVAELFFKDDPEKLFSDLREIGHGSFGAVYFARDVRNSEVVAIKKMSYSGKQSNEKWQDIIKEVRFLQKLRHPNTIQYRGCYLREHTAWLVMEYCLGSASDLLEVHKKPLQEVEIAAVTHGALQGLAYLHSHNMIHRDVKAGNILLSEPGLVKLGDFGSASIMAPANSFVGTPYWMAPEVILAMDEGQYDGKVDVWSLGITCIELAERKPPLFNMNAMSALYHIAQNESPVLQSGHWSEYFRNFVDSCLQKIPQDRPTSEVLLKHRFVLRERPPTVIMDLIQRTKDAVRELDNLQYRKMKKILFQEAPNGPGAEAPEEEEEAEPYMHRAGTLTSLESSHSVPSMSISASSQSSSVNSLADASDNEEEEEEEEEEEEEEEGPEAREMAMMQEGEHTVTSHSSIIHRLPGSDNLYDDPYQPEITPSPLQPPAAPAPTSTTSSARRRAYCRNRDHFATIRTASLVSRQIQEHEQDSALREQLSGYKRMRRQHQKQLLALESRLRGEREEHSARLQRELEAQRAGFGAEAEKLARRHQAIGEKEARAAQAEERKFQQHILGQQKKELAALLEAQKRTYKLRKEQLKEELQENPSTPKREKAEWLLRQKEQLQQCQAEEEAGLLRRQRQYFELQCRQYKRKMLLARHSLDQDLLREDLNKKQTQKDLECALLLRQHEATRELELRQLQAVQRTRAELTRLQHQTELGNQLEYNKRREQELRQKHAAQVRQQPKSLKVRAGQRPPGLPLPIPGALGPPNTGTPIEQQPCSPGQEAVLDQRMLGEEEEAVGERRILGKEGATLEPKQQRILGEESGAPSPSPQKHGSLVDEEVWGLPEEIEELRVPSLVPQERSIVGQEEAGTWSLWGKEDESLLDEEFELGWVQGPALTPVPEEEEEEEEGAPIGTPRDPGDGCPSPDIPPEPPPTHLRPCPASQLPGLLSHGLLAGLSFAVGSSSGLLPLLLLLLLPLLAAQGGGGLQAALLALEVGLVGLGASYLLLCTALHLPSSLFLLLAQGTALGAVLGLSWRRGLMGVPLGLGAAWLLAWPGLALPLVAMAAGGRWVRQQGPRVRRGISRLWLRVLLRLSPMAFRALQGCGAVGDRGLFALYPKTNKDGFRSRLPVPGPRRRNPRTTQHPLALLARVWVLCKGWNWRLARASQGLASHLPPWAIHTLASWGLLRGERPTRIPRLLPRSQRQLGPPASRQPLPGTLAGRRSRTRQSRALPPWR
T26 sequence (Q16288 32-839): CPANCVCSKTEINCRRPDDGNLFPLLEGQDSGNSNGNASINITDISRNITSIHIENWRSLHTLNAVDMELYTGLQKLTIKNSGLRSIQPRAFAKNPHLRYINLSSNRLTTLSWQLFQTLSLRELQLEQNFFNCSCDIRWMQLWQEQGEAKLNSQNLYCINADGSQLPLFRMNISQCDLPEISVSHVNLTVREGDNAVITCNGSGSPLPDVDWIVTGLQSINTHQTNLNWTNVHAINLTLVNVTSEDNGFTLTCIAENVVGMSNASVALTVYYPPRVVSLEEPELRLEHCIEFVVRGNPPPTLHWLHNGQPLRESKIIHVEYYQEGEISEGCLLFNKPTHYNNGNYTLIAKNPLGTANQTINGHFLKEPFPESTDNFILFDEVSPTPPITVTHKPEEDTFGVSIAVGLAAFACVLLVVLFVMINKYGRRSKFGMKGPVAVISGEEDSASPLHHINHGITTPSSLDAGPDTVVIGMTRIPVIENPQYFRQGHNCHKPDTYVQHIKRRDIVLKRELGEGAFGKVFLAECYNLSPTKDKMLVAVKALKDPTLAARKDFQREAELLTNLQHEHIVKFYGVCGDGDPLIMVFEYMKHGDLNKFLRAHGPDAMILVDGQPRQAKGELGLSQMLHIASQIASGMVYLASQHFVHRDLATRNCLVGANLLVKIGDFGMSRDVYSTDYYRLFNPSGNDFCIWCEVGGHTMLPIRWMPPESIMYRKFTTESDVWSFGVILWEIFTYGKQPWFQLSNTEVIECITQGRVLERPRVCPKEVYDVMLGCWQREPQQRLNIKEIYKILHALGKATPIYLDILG
T15 sequence (P36894 24-532): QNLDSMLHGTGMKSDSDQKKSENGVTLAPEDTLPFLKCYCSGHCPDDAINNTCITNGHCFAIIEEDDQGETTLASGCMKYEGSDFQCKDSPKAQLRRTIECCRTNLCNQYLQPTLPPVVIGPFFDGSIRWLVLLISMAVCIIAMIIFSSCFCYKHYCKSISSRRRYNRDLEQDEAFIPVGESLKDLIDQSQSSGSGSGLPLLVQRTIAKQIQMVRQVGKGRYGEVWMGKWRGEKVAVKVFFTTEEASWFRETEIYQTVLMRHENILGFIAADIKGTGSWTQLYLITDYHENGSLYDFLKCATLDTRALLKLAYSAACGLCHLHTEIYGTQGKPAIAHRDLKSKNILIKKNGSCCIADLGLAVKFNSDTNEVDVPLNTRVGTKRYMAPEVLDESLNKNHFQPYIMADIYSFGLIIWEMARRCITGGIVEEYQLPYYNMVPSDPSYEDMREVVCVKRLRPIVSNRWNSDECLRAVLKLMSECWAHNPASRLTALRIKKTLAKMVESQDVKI
T31 sequence (P14616 27-1297): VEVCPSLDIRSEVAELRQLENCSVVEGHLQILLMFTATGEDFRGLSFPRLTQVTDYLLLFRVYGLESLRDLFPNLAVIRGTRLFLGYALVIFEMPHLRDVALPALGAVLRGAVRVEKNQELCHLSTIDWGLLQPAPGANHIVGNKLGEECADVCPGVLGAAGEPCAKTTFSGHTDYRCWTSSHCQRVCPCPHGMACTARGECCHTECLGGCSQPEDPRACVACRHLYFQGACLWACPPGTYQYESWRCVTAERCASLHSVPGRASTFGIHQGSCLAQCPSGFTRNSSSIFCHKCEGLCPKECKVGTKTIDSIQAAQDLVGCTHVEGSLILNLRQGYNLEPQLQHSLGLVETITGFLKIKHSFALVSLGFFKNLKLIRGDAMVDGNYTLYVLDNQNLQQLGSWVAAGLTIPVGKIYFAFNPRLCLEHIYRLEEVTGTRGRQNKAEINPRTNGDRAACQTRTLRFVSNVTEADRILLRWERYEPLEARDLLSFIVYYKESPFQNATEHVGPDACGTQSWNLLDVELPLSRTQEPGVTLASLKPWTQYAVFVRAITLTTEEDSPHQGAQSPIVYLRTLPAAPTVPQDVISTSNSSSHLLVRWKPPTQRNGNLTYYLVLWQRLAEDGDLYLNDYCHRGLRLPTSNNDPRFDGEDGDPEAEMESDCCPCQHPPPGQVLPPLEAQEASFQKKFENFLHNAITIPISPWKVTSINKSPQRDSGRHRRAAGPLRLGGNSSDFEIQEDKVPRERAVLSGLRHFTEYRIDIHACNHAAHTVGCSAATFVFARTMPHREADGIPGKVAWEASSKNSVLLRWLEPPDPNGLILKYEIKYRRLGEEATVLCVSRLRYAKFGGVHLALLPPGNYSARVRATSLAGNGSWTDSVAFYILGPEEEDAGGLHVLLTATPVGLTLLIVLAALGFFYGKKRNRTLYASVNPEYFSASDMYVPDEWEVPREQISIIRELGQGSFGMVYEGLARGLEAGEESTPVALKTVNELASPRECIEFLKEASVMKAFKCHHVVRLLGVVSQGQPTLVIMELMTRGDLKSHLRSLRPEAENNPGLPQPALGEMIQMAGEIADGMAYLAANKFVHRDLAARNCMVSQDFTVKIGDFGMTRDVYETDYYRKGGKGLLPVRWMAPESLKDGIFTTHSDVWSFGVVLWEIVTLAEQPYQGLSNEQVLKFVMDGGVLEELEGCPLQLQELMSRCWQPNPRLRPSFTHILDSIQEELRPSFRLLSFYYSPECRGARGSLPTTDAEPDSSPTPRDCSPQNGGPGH
T10 sequence (P00519 whole entry F317L): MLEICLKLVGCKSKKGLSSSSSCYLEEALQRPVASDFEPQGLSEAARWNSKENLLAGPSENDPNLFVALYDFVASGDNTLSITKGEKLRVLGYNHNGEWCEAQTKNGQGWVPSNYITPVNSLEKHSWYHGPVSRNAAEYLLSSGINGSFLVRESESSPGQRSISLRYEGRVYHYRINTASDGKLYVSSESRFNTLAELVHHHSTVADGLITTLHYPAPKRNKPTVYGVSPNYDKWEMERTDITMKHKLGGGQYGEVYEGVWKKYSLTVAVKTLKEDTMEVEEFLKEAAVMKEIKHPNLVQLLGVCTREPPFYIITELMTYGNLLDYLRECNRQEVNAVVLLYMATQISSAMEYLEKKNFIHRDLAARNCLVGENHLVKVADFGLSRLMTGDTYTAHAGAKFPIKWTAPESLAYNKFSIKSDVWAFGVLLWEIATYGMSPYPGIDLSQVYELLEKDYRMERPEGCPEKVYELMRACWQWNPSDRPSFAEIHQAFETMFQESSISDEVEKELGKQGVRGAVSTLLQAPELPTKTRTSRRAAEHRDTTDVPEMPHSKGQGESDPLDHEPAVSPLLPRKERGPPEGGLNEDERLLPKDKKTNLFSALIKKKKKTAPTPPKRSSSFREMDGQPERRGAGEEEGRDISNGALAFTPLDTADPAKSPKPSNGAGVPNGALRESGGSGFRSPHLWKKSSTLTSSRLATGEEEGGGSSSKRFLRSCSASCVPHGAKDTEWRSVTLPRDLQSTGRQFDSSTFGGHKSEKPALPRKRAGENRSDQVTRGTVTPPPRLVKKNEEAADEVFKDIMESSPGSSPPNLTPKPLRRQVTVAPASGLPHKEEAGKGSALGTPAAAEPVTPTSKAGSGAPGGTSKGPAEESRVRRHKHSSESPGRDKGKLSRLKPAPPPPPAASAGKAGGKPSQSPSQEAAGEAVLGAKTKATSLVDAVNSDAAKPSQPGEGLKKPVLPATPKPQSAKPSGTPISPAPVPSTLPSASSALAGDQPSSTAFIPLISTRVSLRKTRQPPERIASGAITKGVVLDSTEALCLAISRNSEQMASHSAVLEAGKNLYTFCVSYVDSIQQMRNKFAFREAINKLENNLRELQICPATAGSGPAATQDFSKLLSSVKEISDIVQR
T19 sequence (P00519 whole entry F317I): as the sequence (P00519 whole entry F317L) above, with L317I counted along it

Cc1ccccc1-n1c(C(C)Nc2nc(N)nc3nc[nH]c23)nc2cccc(C)c2c1=O (stereo not shown) [CAL-130]
100%: all assays above
